Read-outs that look alike come from different tables or passages of the source.
Legend:
Assay in all cases: Test C pre/postemergence
Type in all cases: in vivo
[1] = tested on: cocklebur (Xanthium strumarium); conditions: for Plant response rating, Cocklebur: Preemergence
Method in brief: (§1)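 We sprayed seeded pots preemergence and 2–18 cm seedlings postemergence with test chemicals in a non-phytotoxic solvent mixture including surfactant. Greenhouse plants were visually compared with untreated controls at 12 to 14 days and scored 0 (no effect) to 100 (complete control).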

soybean (Glycine max) = conditions: for Plant response rating, Soybean: Preemergence, scale 0 to 100, 0 no effect, 100 complete control
Method in brief: as §1

[2] = tested on: pigweed (Amaranthus retroflexus); conditions: for pest or weed control at 16 g/ha: 16 g ai/ha
Method in brief: as §1

[3] = tested on: common (oilseed) sunflower (Helianthus annuus); conditions: Preemergence, scale 0 to 100, 0 no effect, 100 complete control
Method in brief: as §1

[4] = tested on: johnsongrass (Sorghum halepense); conditions: for pest or weed control at 16 g/ha: 16 g ai/ha
Method in brief: as §1

[5] = tested on: eastern black nightshade (Solanum ptycanthum); conditions: Preemergence, scale 0 to 100, 0 no effect, 100 complete control
Method in brief: as §1

[6] = tested on: common ragweed (Ambrosia elatior); conditions: for Plant response rating, Ragweed: Preemergence, scale 0 to 100, 0 no effect, 100 complete control
Method in brief: as §1

[7] = tested on: goosegrass (Eleusine indica); conditions: for pest or weed control at 16 g/ha: 16 g ai/ha
Method in brief: as §1

[8] = tested on: velvetleaf (Abutilon theophrasti); conditions: for Plant response rating, Velvetleaf: Preemergence, scale 0 to 100, 0 no effect, 100 complete control
Method in brief: as §1

[9] = tested on: bermudagrass (Cynodon dactylon); conditions: for pest or weed control at 16 g/ha: 16 g ai/ha
Method in brief: as §1

kochia (Kochia scoparia) = conditions: for pest or weed control at 31 g/ha: 31 g ai/ha
Method in brief: as §1

[10] = tested on: lambsquarters (Chenopodium album); conditions: for pest or weed control at 16 g/ha: 16 g ai/ha; for pest or weed control at 62 g/ha: 62 g ai/ha
Method in brief: as §1

[11] = Preemergence, 31 g ai/ha, scale 0 to 100, 0 no effect, 100 complete control
[12] = Preemergence, 62 g ai/ha, scale 0 to 100, 0 no effect, 100 complete control
[13] = Preemergence, 125 g ai/ha, scale 0 to 100
[14] = Chenopodium album, post-emergence, Postemergence, read-out: Plant response rating (scale of 0 to 100), Lambsquarters
[15] = Chenopodium album, pre-emergence, Preemergence, scale 0 to 100, 0 no effect, 100 complete control, read-out: Plant response rating, Lambsquarters

With Nc1nc(C2CC2)nc(C(=O)O)c1Cl [Compound 135, 6-amino-5-chloro-2-cyclopropyl-4-pyrimidinecarboxylic acid] the “Plant response rating, Cocklebur” value ([1]; 16 g ai/ha, scale 0 to 100, 0 no effect, 100 complete control) was 85, the “Plant response rating, Cocklebur” value ([1]; 31 g ai/ha, scale 0 to 100, 0 no effect, 100 complete control) was 95 and the “Plant response rating, Cocklebur” value ([1]; 62 g ai/ha, scale 0 to 100, 0 no effect, 100 complete control) was 95. The “Plant response rating, Cocklebur” value ([1]; 125 g ai/ha, scale 0 to 100) was 100, the pest or weed control at 16 g/ha ([1]; Xanthium strumarium, post-emergence, Postemergence, 16 g ai/ha, read-out: Plant response rating (scale of 0 to 100), Cocklebur) was 90% and the pest or weed control at 31 g/ha ([1]; Xanthium strumarium, post-emergence, Postemergence, 31 g ai/ha, read-out: Plant response rating (scale of 0 to 100), Cocklebur) was 100%. The pest or weed control at 125 g/ha ([1]; Xanthium strumarium, post-emergence, Postemergence, 125 g ai/ha, scale 0 to 100 (0 no effect, 100 complete control), read-out: Cocklebur plant response rating) was 100%, the plant injury at 16 g/ha (soybean (Glycine max); Glycine max, post-emergence, Postemergence, 16 g ai/ha, read-out: Plant response rating (scale of 0 to 100), Soybean) was 100% and the plant injury at 62 g/ha (soybean (Glycine max); Glycine max, post-emergence, Postemergence, 62 g ai/ha, read-out: Plant response rating (scale of 0 to 100), Soybean) was 100%. For the same molecule, the plant injury at 125 g/ha (soybean (Glycine max); Glycine max, post-emergence, Postemergence, 125 g ai/ha, scale 0 to 100 (0 no effect, 100 complete control), read-out: Soybean plant response rating) was 100%, the “Plant response rating, Soybean” value (soybean (Glycine max); 16 g ai/ha) was 85 and the “Plant response rating, Soybean” value (soybean (Glycine max); 31 g ai/ha) was 95. The “Plant response rating, Soybean” value (soybean (Glycine max); 62 g ai/ha) was 95, the pest or weed control at 16 g/ha ([2]; Amaranthus retroflexus, post-emergence, Postemergence, read-out: Plant response rating (scale of 0 to 100), Pigweed) was 85% and the pest or weed control at 31 g/ha ([2]; Amaranthus retroflexus, post-emergence, Postemergence, 31 g ai/ha, read-out: Plant response rating (scale of 0 to 100), Pigweed) was 95%. The pest or weed control at 62 g/ha ([2]; Amaranthus retroflexus, post-emergence, Postemergence, 62 g ai/ha, read-out: Plant response rating (scale of 0 to 100), Pigweed) was 100%, the pest or weed control at 125 g/ha ([2]; Amaranthus retroflexus, post-emergence, Postemergence, 125 g ai/ha, scale 0 to 100 (0 no effect, 100 complete control), read-out: Pigweed plant response rating) was 100% and the pest or weed control at 16 g/ha ([2]; Amaranthus retroflexus, pre-emergence, Preemergence, scale 0 to 100, 0 no effect, 100 complete control, read-out: Plant response rating, Pigweed) was 70%. For the same molecule, the “Plant response rating, Pigweed” value [2, 11] was 70, the “Plant response rating, Pigweed” value [2, 12] was 80 and the “Plant response rating, Sunflower” value ([3]; 16 g ai/ha) was 65. The “Plant response rating, Sunflower” value ([3]; 31 g ai/ha) was 70, the “Plant response rating, Sunflower” value ([3]; 62 g ai/ha) was 90 and the “Plant response rating, Johnsongrass” value [4, 11] was 0. The “Plant response rating, Johnsongrass” value [4, 12] was 5, the “Plant response rating, Johnsongrass” value [4, 13] was 40 and the pest or weed control at 16 g/ha ([4]; Sorghum halepense, post-emergence, Postemergence, read-out: Plant response rating (scale of 0 to 100), Johnsongrass) was 15%. The pest or weed control at 31 g/ha ([4]; Sorghum halepense, post-emergence, Postemergence, 31 g ai/ha, read-out: Plant response rating (scale of 0 to 100), Johnsongrass) was 35%, the pest or weed control at 62 g/ha ([4]; Sorghum halepense, post-emergence, Postemergence, 62 g ai/ha, read-out: Plant response rating (scale of 0 to 100), Johnsongrass) was 65% and the pest or weed control at 125 g/ha ([4]; Sorghum halepense, post-emergence, Postemergence, 125 g ai/ha, scale 0 to 100 (0 no effect, 100 complete control), read-out: Johnsongrass plant response rating) was 70%. The pest or weed control at 16 g/ha ([4]; Sorghum halepense, pre-emergence, Preemergence, scale 0 to 100, 0 no effect, 100 complete control, read-out: Plant response rating, Johnsongrass) was 0%, the “Plant response rating, Nightshade” value ([5]; 31 g ai/ha) was 30 and the “Plant response rating, Nightshade” value ([5]; 62 g ai/ha) was 35. For the same molecule, the “Plant response rating, Nightshade” value [5] was 50, the pest or weed control at 16 g/ha ([5]; Solanum, pre-emergence, 16 g ai/ha, read-out: Plant response rating, Nightshade) was 0% and the pest or weed control at 16 g/ha ([6]; Ambrosia artemisiifolia, post-emergence, Postemergence, 16 g ai/ha, read-out: Plant response rating (scale of 0 to 100), Ragweed) was 75%. For the same molecule, the pest or weed control at 31 g/ha ([6]; Ambrosia artemisiifolia, post-emergence, Postemergence, 31 g ai/ha, read-out: Plant response rating (scale of 0 to 100), Ragweed) was 80%, the pest or weed control at 62 g/ha ([6]; Ambrosia artemisiifolia, post-emergence, Postemergence, 62 g ai/ha, read-out: Plant response rating (scale of 0 to 100), Ragweed) was 85% and the pest or weed control at 125 g/ha ([6]; Ambrosia artemisiifolia, post-emergence, Postemergence, 125 g ai/ha, scale 0 to 100 (0 no effect, 100 complete control), read-out: Ragweed plant response rating) was 95%. For the same molecule, the “Plant response rating, Ragweed” value ([6]; 16 g ai/ha) was 5, the “Plant response rating, Ragweed” value ([6]; 62 g ai/ha) was 35 and the “Plant response rating, Ragweed” value [6] was 70. It also gave a pest or weed control at 16 g/ha ([7]; Eleusine indica, post-emergence, Postemergence, read-out: Plant response rating (scale of 0 to 100), Goosegrass) of 5%, a pest or weed control at 31 g/ha ([7]; Eleusine indica, post-emergence, Postemergence, 31 g ai/ha, read-out: Plant response rating (scale of 0 to 100), Goosegrass) of 35% and a pest or weed control at 62 g/ha ([7]; Eleusine indica, post-emergence, Postemergence, 62 g ai/ha, read-out: Plant response rating (scale of 0 to 100), Goosegrass) of 45%. For the same molecule, the pest or weed control at 125 g/ha ([7]; Eleusine indica, post-emergence, Postemergence, 125 g ai/ha, scale 0 to 100 (0 no effect, 100 complete control), read-out: Goosegrass plant response rating) was 55%, the pest or weed control at 16 g/ha ([7]; Eleusine indica, pre-emergence, Preemergence, scale 0 to 100, 0 no effect, 100 complete control, read-out: Plant response rating, Goosegrass) was 0% and the “Plant response rating, Goosegrass” value [7, 11] was 0. For the same molecule, the “Plant response rating, Goosegrass” value [7, 12] was 0, the “Plant response rating, Goosegrass” value [7, 13] was 40 and the pest or weed control at 16 g/ha ([8]; Abutilon theophrasti, post-emergence, Postemergence, 16 g ai/ha, read-out: Plant response rating (scale of 0 to 100), Velvetleaf) was 55%. For the same molecule, the pest or weed control at 31 g/ha ([8]; Abutilon theophrasti, post-emergence, Postemergence, 31 g ai/ha, read-out: Plant response rating (scale of 0 to 100), Velvetleaf) was 90%, the pest or weed control at 125 g/ha ([8]; Abutilon theophrasti, post-emergence, Postemergence, 125 g ai/ha, scale 0 to 100 (0 no effect, 100 complete control), read-out: Velvetleaf plant response rating) was 95% and the “Plant response rating, Velvetleaf” value ([8]; 16 g ai/ha) was 60. For the same molecule, the “Plant response rating, Velvetleaf” value ([8]; 31 g ai/ha) was 85, the “Plant response rating, Velvetleaf” value ([8]; 62 g ai/ha) was 90 and the pest or weed control at 16 g/ha ([9]; Cynodon dactylon, post-emergence, Postemergence, read-out: Plant response rating (scale of 0 to 100), Bermudagrass) was 40%. It also gave a pest or weed control at 62 g/ha ([9]; Cynodon dactylon, post-emergence, Postemergence, 62 g ai/ha, scale 0 to 100 (0 no effect, 100 complete control), read-out: Bermudagrass plant response rating) of 60%, a pest or weed control at 125 g/ha ([9]; Cynodon dactylon, post-emergence, Postemergence, 125 g ai/ha, scale 0 to 100 (0 no effect, 100 complete control), read-out: Bermudagrass plant response rating) of 75% and a pest or weed control at 16 g/ha ([9]; Cynodon dactylon, pre-emergence, Preemergence, scale 0 to 100, 0 no effect, 100 complete control, read-out: Plant response rating, Bermudagrass) of 0%. The “Plant response rating, Bermudagrass” value [9, 11] was 0, the “Plant response rating, Bermudagrass” value [9, 12] was 0 and the “Plant response rating, Bermudagrass” value [9, 13] was 0. It also gave a pest or weed control at 16 g/ha (kochia (Kochia scoparia); Bassia scoparia, post-emergence, Postemergence, 16 g ai/ha, read-out: Plant response rating (scale of 0 to 100), Kochia) of 75%, a pest or weed control at 31 g/ha (kochia (Kochia scoparia); Bassia scoparia, post-emergence, Postemergence, read-out: Plant response rating (scale of 0 to 100), Kochia) of 90% and a pest or weed control at 62 g/ha (kochia (Kochia scoparia); Bassia scoparia, post-emergence, Postemergence, 62 g ai/ha, read-out: Plant response rating (scale of 0 to 100), Kochia) of 90%. For the same molecule, the pest or weed control at 125 g/ha (kochia (Kochia scoparia); Bassia scoparia, post-emergence, Postemergence, 125 g ai/ha, scale 0 to 100 (0 no effect, 100 complete control), read-out: Kochia plant response rating) was 95%, the pest or weed control at 31 g/ha (kochia (Kochia scoparia); Bassia scoparia, pre-emergence, Preemergence, scale 0 to 100, 0 no effect, 100 complete control, read-out: Plant response rating, Kochia) was 75% and the “Plant response rating, Kochia” value (kochia (Kochia scoparia); Preemergence, 16 g ai/ha, scale 0 to 100, 0 no effect, 100 complete control) was 60. For the same molecule, the “Plant response rating, Kochia” value (kochia (Kochia scoparia); [12]) was 75, the “Plant response rating, Kochia” value (kochia (Kochia scoparia); [13]) was 100 and the pest or weed control at 16 g/ha [10, 14] was 60%. The pest or weed control at 31 g/ha ([10]; Chenopodium album, post-emergence, Postemergence, 31 g ai/ha, read-out: Plant response rating (scale of 0 to 100), Lambsquarters) was 90%, the pest or weed control at 62 g/ha [10, 14] was 90% and the pest or weed control at 125 g/ha ([10]; Chenopodium album, post-emergence, Postemergence, 125 g ai/ha, scale 0 to 100 (0 no effect, 100 complete control), read-out: Lambsquarters plant response rating) was 95%. The pest or weed control at 16 g/ha [10, 15] was 0%, the pest or weed control at 62 g/ha [10, 15] was 70% and the “Plant response rating, Lambsquarters” value [10, 11] was 70. The “Plant response rating, Lambsquarters” value [10, 13] was 90.

Source: patent US8802597B2, “Herbicidal pyrimidines” (E I du Pont de Nemours and Company, priority 2003, dated 2014)
